Tests used:
UACC-257 = assay: NCI SRB assay; type: cell-based, human
SF-268 = assay: NCI SRB assay; type: cell-based, human
SK-MEL-2 = assay: NCI SRB assay; type: cell-based, human
NCI-H322M = assay: NCI SRB assay; type: cell-based, human
LOX IMVI = assay: NCI SRB assay; type: cell-based, human
HCT-15 = assay: NCI SRB assay; type: cell-based, human
CCRF-CEM = assay: NCI SRB assay; type: cell-based, human
NCI/ADR-RES = assay: NCI SRB assay; type: cell-based, human
hCA I = molecular target: T1, hCA I (Homo sapiens, UniProt P00915); assay: stopped flow CO2 hydrase assay; type: biochemical; settings: mean from 3 assays
T1 construct: made in house
T1 sequence (P00915 whole entry): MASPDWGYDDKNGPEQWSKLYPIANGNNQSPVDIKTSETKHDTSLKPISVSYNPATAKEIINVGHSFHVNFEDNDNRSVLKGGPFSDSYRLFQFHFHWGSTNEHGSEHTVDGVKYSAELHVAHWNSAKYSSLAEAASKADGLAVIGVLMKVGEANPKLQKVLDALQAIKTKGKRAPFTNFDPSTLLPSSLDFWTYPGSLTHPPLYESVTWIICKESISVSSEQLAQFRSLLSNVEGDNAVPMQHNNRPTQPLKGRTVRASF
In short: (§1)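 Recombinant enzymes assayed by stopped-flow CO2 hydration using 0.2 mM phenol red at 557 nm in 20 mM Hepes pH 7.5 with 20 mM Na2SO4, CO2 1.7–17 mM. Inhibitor and enzyme preincubated 15 min at room temperature.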

hCA XII = molecular target: T2, hCA XII (Homo sapiens, UniProt O43570); assay: stopped flow CO2 hydrase assay; type: biochemical
T2 construct: made in house
T2 sequence (O43570 25-354): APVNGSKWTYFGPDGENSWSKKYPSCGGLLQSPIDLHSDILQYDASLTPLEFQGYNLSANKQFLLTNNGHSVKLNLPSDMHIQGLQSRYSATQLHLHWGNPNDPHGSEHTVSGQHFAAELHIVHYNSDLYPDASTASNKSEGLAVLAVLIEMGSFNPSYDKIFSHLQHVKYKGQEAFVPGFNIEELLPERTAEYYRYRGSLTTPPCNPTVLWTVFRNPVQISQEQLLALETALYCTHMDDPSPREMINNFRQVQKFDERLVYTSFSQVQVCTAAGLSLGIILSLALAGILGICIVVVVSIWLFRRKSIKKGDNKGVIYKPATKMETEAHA
In short: as §1

hCA IX = molecular target: T3, hCA IX (Homo sapiens, UniProt Q16790); assay: stopped flow CO2 hydrase assay; type: biochemical
T3 construct: made in house
In short: as §1

DU-145 = assay: NCI SRB assay; type: cell-based, human
ACHN = assay: NCI SRB assay; type: cell-based, human
IGROV1 = assay: NCI SRB assay; type: cell-based, human
CAKI-1 = assay: NCI SRB assay; type: cell-based, human
RPMI-8226 = assay: NCI SRB assay; type: cell-based, human
UACC-62 = assay: NCI SRB assay; type: cell-based, human
SK-OV-3 = assay: NCI SRB assay; type: cell-based, human
SNB-19 = assay: NCI SRB assay; type: cell-based, human
SF-295 = assay: NCI SRB assay; type: cell-based, human
NCI-H23 = assay: NCI SRB assay; type: cell-based, human
NCI-H226 = assay: NCI SRB assay; type: cell-based, human
A498 = assay: NCI SRB assay; type: cell-based, human
HL-60(TB) = assay: NCI SRB assay; type: cell-based, human; settings: HL-60(TB)
HOP-92 = assay: NCI SRB assay; type: cell-based, human
EKVX = assay: NCI SRB assay; type: cell-based, human
MCF7 = assay: NCI SRB assay; type: cell-based, human
BT-549 = assay: NCI SRB assay; type: cell-based, human

`COc1ccc(-c2nc(Nc3ccccc3C(=O)O)c3ccccc3n2)cc1` [6c, 2-((2–(4-Methoxyphenyl)quinazolin-4-yl)amino)benzoic acid] was tested, and the GI% (UACC-257; UACC-257, 10 μM) was 28%, the “Growth Percent” value (UACC-257; UACC-257, 1.00E-5 Molar) was 72.03% and the GI% (SF-268; SF-268, 10 μM) was 43%. The “Growth Percent” value (SF-268; SF-268, 1.00E-5 Molar) was 56.93%, the GI% (SK-MEL-2; SK-MEL-2, 10 μM) was 57% and the “Growth Percent” value (SK-MEL-2; SK-MEL-2, 1.00E-5 Molar) was 43.49%. For the same compound, the GI% (NCI-H322M; 10 μM) was 24%, the “Growth Percent” value (NCI-H322M; 1.00E-5 Molar) was 75.73% and the GI% (LOX IMVI; 10 μM) was 50%. The “Growth Percent” value (LOX IMVI; 1.00E-5 Molar) was 49.53%, the GI% (HCT-15; HCT-15, 10 μM) was 61% and the “Growth Percent” value (HCT-15; HCT-15, 1.00E-5 Molar) was 39.33%. The GI% (CCRF-CEM; 10 μM) was 58%, the “Growth Percent” value (CCRF-CEM; 1.00E-5 Molar) was 42.05% and the GI% (NCI/ADR-RES; 10 μM) was 46%. The “Growth Percent” value (NCI/ADR-RES; 1.00E-5 Molar) was 54.40%, the Ki (hCA I) was > 100 µM and the “Selectivity ratio I/XII” value (hCA XII; KI hCA I / KI hCA XII) was 11.2. For the same compound, the “Selectivity ratio II/XII” value (hCA XII; KI hCA II / KI hCA XII) was 9.34, the Ki (hCA XII; mean from 3 assays) was 8.9 µM and the “Selectivity ratio II/IX” value (hCA IX; KI hCA II / KI hCA IX) was 1.79. For the same compound, the Ki (hCA IX; mean from 3 assays) was 46.4 µM, the GI% (DU-145; DU-145, 10 μM) was 43% and the “Growth Percent” value (DU-145; DU-145, 1.00E-5 Molar) was 56.86%. The GI% (ACHN; 10 μM) was 54%, the “Growth Percent” value (ACHN; 1.00E-5 Molar) was 46.21% and the GI% (IGROV1; IGROV1, 10 μM) was 21%. For the same compound, the “Growth Percent” value (IGROV1; IGROV1, 1.00E-5 Molar) was 78.77%, the GI% (CAKI-1; CAKI-1, 10 μM) was 53% and the “Growth Percent” value (CAKI-1; CAKI-1, 1.00E-5 Molar) was 46.89%. The GI% (RPMI-8226; RPMI-8226, 10 μM) was 80%, the “Growth Percent” value (RPMI-8226; RPMI-8226, 1.00E-5 Molar) was 20.19% and the GI% (UACC-62; UACC-62, 10 μM) was 44%. The “Growth Percent” value (UACC-62; UACC-62, 1.00E-5 Molar) was 55.88%, the GI% (SK-OV-3; SK-OV-3, 10 μM) was 53% and the “Growth Percent” value (SK-OV-3; SK-OV-3, 1.00E-5 Molar) was 47.19%. The GI% (SNB-19; SNB-19, 10 μM) was 55%, the “Growth Percent” value (SNB-19; SNB-19, 1.00E-5 Molar) was 45.59% and the GI% (SF-295; SF-295, 10 μM) was 60%. The “Growth Percent” value (SF-295; SF-295, 1.00E-5 Molar) was 39.93%, the GI% (NCI-H23; NCI-H23, 10 μM) was 38% and the “Growth Percent” value (NCI-H23; NCI-H23, 1.00E-5 Molar) was 62.10%. The GI% (NCI-H226; NCI-H226, 10 μM) was 47%, the “Growth Percent” value (NCI-H226; NCI-H226, 1.00E-5 Molar) was 53.45% and the GI% (A498; A498, 10 μM) was 41%. For the same compound, the “Growth Percent” value (A498; A498, 1.00E-5 Molar) was 58.92%, the GI% (HL-60(TB); 10 μM) was 67% and the “Growth Percent” value (HL-60(TB); 1.00E-5 Molar) was 32.98%. The GI% (HOP-92; HOP-92, 10 μM) was 78%, the “Growth Percent” value (HOP-92; HOP-92, 1.00E-5 Molar) was 21.82% and the GI% (EKVX; 10 μM) was 66%. For the same compound, the “Growth Percent” value (EKVX; 1.00E-5 Molar) was 33.92%, the GI% (MCF7; MCF7, 10 μM) was 49% and the “Growth Percent” value (MCF7; MCF7, 1.00E-5 Molar) was 51.24%. For the same compound, the GI% (BT-549; BT-549, 10 μM) was 62% and the “Growth Percent” value (BT-549; BT-549, 1.00E-5 Molar) was 37.53%.
